These results are taken from patent US6180388A, “Enzymes and micro organisms with amidase activity which hydrolyze polyamides” (Rhone-Poulenc Fibres et Polymeres S.A., priority 1995, dated 2001).

The test system of data set [1] is Comamonas acidovorans N 12. Nature of the data set: Enzymatic hydrolysis of PA 6.6 oligomers, activity of the wild-type microorganism. The following applies: 28° C., 10.5 mmol/l phosphate buffer pH 7.5. The class given is cell-based. The source says: 2.2 ENZYMATIC HYDROLYSIS--MEASUREMENT OF ACTIVITY OF THE WILD-TYPE MICROORGANISM: […]
The conditions of data set [2]: polyamide 66 labeled with carbon 14; cited from earlier work.

Take `NCCCCCCNC(=O)CCCCC(=O)O` [AB]: the “hydrolysis AB → A + B” value in data set [1] (substrate 1.4 g/l) is given as 280 mg of A/h.g of dry cells.
For trypsin [reference compound], the “degradation of polyamide 66” value in data set [2] is reported as “degrade polyamide 66 slightly”.
For the molecule `O=C(O)CCCCC(=O)NCCCCCCNC(=O)CCCCC(=O)O` [ABA], the “hydrolysis ABA → AB + A” value in data set [1] (substrate 2.6 g/l) is 215 mg of AB/h.g of dry cells.
As for `NCCCCCCNC(=O)CCCCC(=O)NCCCCCCNC(=O)CCCCC(=O)O` [ABAB], the “hydrolysis ABAB → BAB + A” value in data set [1] (substrate 1.4 g/l) is recorded as 410 mg of BAB/h.g of dry cells.

B1: papain: known enzyme of the prior art (protein, UniProt P00784 134-345, looked up)
Papain: IPEYVDWRQKGAVTPVKNQGSCGSCWAFSAVVTIEGIIKIRTGNLNEYSEQELLDCDRRSYGCNGGYPWSALQLVAQYGIHYRNTYPYEGVQRYCRSREKGPYAAKTDGVRQVQPYNEGALLYSIANQPVSVVLEAAGKDFQLYRGGIFVGPCGNKVDHAVAAVGYGPNYILIKNSWGTGWGENGYIRIKRGTGNSYGVCGLYTSSFYPVKN
As for B1, the “degradation of polyamide 66” value in data set [2] is recorded as “degrade polyamide 66 slightly”.
